Assay results as given in PubChem BioAssay AID248 (DTP/NCI, 2004).
Several values for one entry are separate records, joined by “and”; a condition that tells them apart may be missing. Equal entries are not always repeated. Toxic doses and inconclusive results are not listed. Rule as the data show it: active = T/C of 150% or more; inactive = T/C below 125%.

Test system: L1210 leukemia ip in BDF1 mice, survival T/C
Assay: NCI In Vivo Anticancer Drug Screen. Data for tumor model L1210 Leukemia (intraperitoneal) in B6D2F1 (BDF1) mice
Settings: endpoint: mean survival time, higher = longer survival
Procedure, shortened: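 Transplantable tumor model; survival measured in treated vs vehicle control mice. Value = treated/control.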

[1] = dose: 100.0 mg/kg/injection, schedule: Q04DX002 (ip), vehicle: saline with Tween-80
[2] = dose: 200.0 mg/kg/injection, schedule: Q04DX002 (ip), vehicle: saline with Tween-80
[3] = dose: 400.0 mg/kg/injection, schedule: Q04DX002 (ip), vehicle: saline with Tween-80
[4] = dose: 25.0 mg/kg/injection, schedule: Q01DX009 (ip), vehicle: saline
[5] = dose: 50.0 mg/kg/injection, schedule: Q01DX009 (ip), vehicle: saline
[6] = dose: 100.0 mg/kg/injection, schedule: Q01DX001 (ip), vehicle: saline
[7] = dose: 100.0 mg/kg/injection, schedule: Q01DX009 (ip), vehicle: saline
[8] = dose: 100.0 mg/kg/injection, schedule: Q04DX003 (ip), vehicle: saline
[9] = dose: 200.0 mg/kg/injection, schedule: Q01DX001 (ip), vehicle: saline
[10] = dose: 400.0 mg/kg/injection, schedule: Q01DX001 (ip), vehicle: saline
[11] = dose: 100.0 mg/kg/injection, schedule: Q01DX001 (ip), vehicle: Klucel (hydroxypropylcellulose) (HPC)
[12] = dose: 100.0 mg/kg/injection, schedule: Q01DX009 (ip), vehicle: Klucel (hydroxypropylcellulose) (HPC)
[13] = dose: 100.0 mg/kg/injection, schedule: Q04DX003 (ip), vehicle: Klucel (hydroxypropylcellulose) (HPC)
[14] = dose: 200.0 mg/kg/injection, schedule: Q01DX001 (ip), vehicle: Klucel (hydroxypropylcellulose) (HPC)
[15] = dose: 200.0 mg/kg/injection, schedule: Q01DX009 (ip), vehicle: Klucel (hydroxypropylcellulose) (HPC)
[16] = dose: 200.0 mg/kg/injection, schedule: Q04DX003 (ip), vehicle: Klucel (hydroxypropylcellulose) (HPC)
[17] = dose: 400.0 mg/kg/injection, schedule: Q01DX001 (ip), vehicle: Klucel (hydroxypropylcellulose) (HPC)
[18] = dose: 400.0 mg/kg/injection, schedule: Q01DX009 (ip), vehicle: Klucel (hydroxypropylcellulose) (HPC)
[19] = dose: 400.0 mg/kg/injection, schedule: Q04DX003 (ip), vehicle: Klucel (hydroxypropylcellulose) (HPC)
[20] = dose: 200.0 mg/kg/injection, schedule: Q04DX003 (ip), vehicle: saline
[21] = dose: 400.0 mg/kg/injection, schedule: Q04DX003 (ip), vehicle: saline
[22] = dose: 100.0 mg/kg/injection, schedule: Q04DX003 (ip), vehicle: saline with Tween-80
[23] = dose: 200.0 mg/kg/injection, schedule: Q04DX003 (ip), vehicle: saline with Tween-80
[24] = dose: 400.0 mg/kg/injection, schedule: Q04DX003 (ip), vehicle: saline with Tween-80
[25] = dose: 200.0 mg/kg/injection, schedule: Q01DX009 (ip), vehicle: saline
[26] = dose: 400.0 mg/kg/injection, schedule: Q01DX009 (ip), vehicle: saline
[27] = dose: 100.0 mg/kg/injection, schedule: Q01DX009 (ip), vehicle: saline with Tween-80
[28] = dose: 200.0 mg/kg/injection, schedule: Q01DX009 (ip), vehicle: saline with Tween-80
[29] = dose: 100.0 mg/kg/injection, schedule: Q01DX001 (ip), vehicle: carboxymethylcellulose (CMC)
[30] = dose: 200.0 mg/kg/injection, schedule: Q01DX001 (ip), vehicle: carboxymethylcellulose (CMC)
[31] = dose: 400.0 mg/kg/injection, schedule: Q01DX001 (ip), vehicle: carboxymethylcellulose (CMC)

Measured: T/C

Cc1[nH]c2ccccc2c1C(c1cc(Cl)cc(Cl)c1O)c1c(C)[nH]c2ccccc12
inactive: [1] 87 % of control | [2] 94 % of control | [3] 91 % of control

O=C(O)/C=C/C(=O)Nc1ccc2c(c1)Cc1cc(NC(=O)C(F)(F)F)ccc1-2
inactive: [4] 105 % of control | dose: 25.0 mg/kg/injection, schedule: Q04DX003 (ip), vehicle: saline 102 % of control | [5] 101 % of control | dose: 50.0 mg/kg/injection, schedule: Q04DX003 (ip), vehicle: saline 96 % of control | [6] 90 % of control | [7] 100 % of control | [8] 98 % of control | [9] 90 % of control

CN(C)S(=O)(=O)c1ccc(CCc2ccc(S(=O)(=O)N(C)C)cc2)cc1
inactive: dose: 50.0 mg/kg/injection, schedule: Q01DX001 (ip), vehicle: saline 93 % of control | [6] 91 % of control | [9] 91 % of control | [10] 96 % of control

COc1ccc([N+](=O)[O-])cc1NC(=O)Nc1cc(C)on1
inactive: [11] 91 % of control | [12] 96 % of control and 87 % of control | dose: 100.0 mg/kg/injection, schedule: Q04DX002 (ip), vehicle: Klucel (hydroxypropylcellulose) (HPC) 103 % of control and 91 % of control | [13] 92 % of control | [14] 95 % of control | [15] 98 % of control and 91 % of control | dose: 200.0 mg/kg/injection, schedule: Q04DX002 (ip), vehicle: Klucel (hydroxypropylcellulose) (HPC) 97 % of control and 91 % of control | [16] 89 % of control | [17] 86 % of control | [18] 95 % of control and 98 % of control | dose: 400.0 mg/kg/injection, schedule: Q04DX002 (ip), vehicle: Klucel (hydroxypropylcellulose) (HPC) 97 % of control | [19] 96 % of control

COn1c(CC(=O)C(=O)O)cccc1=O
inactive: [8] 102 % of control | [20] 97 % of control | [21] 94 % of control

CCC(CO)NC1CCCCC1 (configuration not stated)
inactive: dose: 75.0 mg/kg/injection, schedule: Q01DX001 (ip), vehicle: carboxymethylcellulose (CMC) 88 % of control

CN(C)c1ccc(SCC(=O)c2ccccc2)cc1
inactive: [22] 93 % of control | [23] 101 % of control | [24] 95 % of control

CCCCNC(N)=S
inactive: [13] 98 % of control | [16] 104 % of control | [19] 102 % of control

COc1ccc(/C=N/NC(=O)c2ccccc2OC)cc1
inactive: [7] 108 % of control | [8] 108 % of control | dose: 130.0 mg/kg/injection, schedule: Q01DX009 (ip), vehicle: saline 104 % of control | [25] 92 % of control | [20] 102 % of control | dose: 300.0 mg/kg/injection, schedule: Q01DX009 (ip), vehicle: saline 92 % of control | [26] 114 % of control | [21] 102 % of control

CC[N+](C)(CC)CCNC(=O)C(c1ccccc1)c1ccccc1
inactive: [8] 100 % of control

CC(C)(C1c2ccccc2C(=O)c2ccccc21)[N+](=O)[O-]
inactive: [12] 101 % of control | [13] 98 % of control | [15] 94 % of control | [16] 101 % of control | [18] 99 % of control | [19] 101 % of control

COc1ccc(/C=C(\C#N)c2ccc([N+](=O)[O-])cc2)cc1OC
inactive: [1] 90 % of control | [2] 90 % of control | [3] 90 % of control

CC(CC(=O)O)[Se][Se]C(C)CC(=O)O (configuration not stated)
inactive: [11] 108 % of control | [14] 102 % of control

CC(C)NC(=O)c1ccccc1
inactive: [11] 96 % of control | [13] 96 % of control | [14] 98 % of control | [16] 103 % of control | [17] 101 % of control | [19] 101 % of control

CC(C)(C)N1CCC1CO (configuration not stated)
inactive: dose: 75.0 mg/kg/injection, schedule: Q01DX001 (ip), vehicle: saline 106 % of control | dose: 150.0 mg/kg/injection, schedule: Q01DX001 (ip), vehicle: saline 97 % of control

c1ccc(Cc2ccncc2)cc1
inactive: [27] 101 % of control | [28] 106 % of control

CCCC(=O)/C=C/c1ccc(C)cc1
inactive: [8] 96 % of control | [20] 112 % of control | [21] 96 % of control

CCCCn1c(Cl)c(C(=O)O)c2ccccc21
inactive: dose: 50.0 mg/kg/injection, schedule: Q04DX003 (ip), vehicle: Klucel (hydroxypropylcellulose) (HPC) 94 % of control | [13] 91 % of control | [16] 90 % of control

COCP(=O)(OC)OC
inactive: [8] 116 % of control | [20] 94 % of control | [21] 100 % of control

C1=C(c2ccccc2)CCN(C2(c3ccccc3)CCCCC2)C1
inactive: [6] 101 % of control | [9] 93 % of control | [10] 95 % of control

CC(C)CCCC(=O)O
inactive: [6] 97 % of control | [9] 100 % of control | [10] 89 % of control

CC1C(=O)C2(C)C3(C)C(=O)C(C)(C(c4ccccc4)=C3c3ccccc3)C2(c2ccccc2)C1c1ccccc1 (configuration not stated) (tested in a mixture with another compound)
inactive: dose: 50.0 mg/kg/injection, schedule: Q01DX009 (ip), vehicle: saline with Tween-80 98 % of control | [27] 95 % of control | [28] 95 % of control

COc1ccc2c(c1)CC=CO2
inactive: [29] 107 % of control | [30] 94 % of control | [31] 100 % of control

CCCCCCCCCCCCCSCCCCCCSCCCCCCCCCCCCC
inactive: [11] 89 % of control | [14] 96 % of control | [17] 98 % of control

CCOCc1c(COc2ccc(Cl)cc2)n(C)c2ccccc12
inactive: dose: 100.0 mg/kg/injection, schedule: Q04DX002 (ip), vehicle: saline 98 % of control | dose: 200.0 mg/kg/injection, schedule: Q04DX002 (ip), vehicle: saline 98 % of control | dose: 400.0 mg/kg/injection, schedule: Q04DX002 (ip), vehicle: saline 104 % of control

CC(C)(C)CC1=C(O)c2ccccc2C(=O)C1=O
inactive: dose: 50.0 mg/kg/injection, schedule: Q01DX001 (ip), vehicle: carboxymethylcellulose (CMC) 114 % of control | [29] 111 % of control | [30] 105 % of control | [31] 100 % of control

C=CC[n+]1ccc2ccccc2c1
inactive: [4] 108 % of control | [5] 102 % of control | [7] 105 % of control

CCCNc1nc(N)[nH]c(=O)c1NC=O
inactive: dose: 55.0 mg/kg/injection, schedule: Q01DX Z (ip), vehicle: methylcellulose (MC) 105 % of control | dose: 83.0 mg/kg/injection, schedule: Q01DX Z (ip), vehicle: methylcellulose (MC) 109 % of control | dose: 125.0 mg/kg/injection, schedule: Q01DX Z (ip), vehicle: methylcellulose (MC) 109 % of control | dose: 180.0 mg/kg/injection, schedule: Q01DX Z (ip), vehicle: methylcellulose (MC) 97 % of control

CCOC(=O)c1ccc(NC(=S)NC(=O)/C=C/c2ccccc2)cc1
inactive: [27] 92 % of control | [22] 91 % of control | [28] 100 % of control | [23] 94 % of control | dose: 400.0 mg/kg/injection, schedule: Q01DX009 (ip), vehicle: saline with Tween-80 97 % of control | [24] 101 % of control

CCCCCCCC[As](=O)(O)O
inactive: dose: 1.5 mg/kg/injection, schedule: Q01DX001 (ip), vehicle: carboxymethylcellulose (CMC) 104 % of control | dose: 3.0 mg/kg/injection, schedule: Q01DX001 (ip), vehicle: carboxymethylcellulose (CMC) 98 % of control | dose: 6.0 mg/kg/injection, schedule: Q01DX001 (ip), vehicle: carboxymethylcellulose (CMC) 102 % of control

CC(OC1OC(C(=O)O)C(O)C(O)C1O)c1ccccc1 (configuration not stated)
inactive: [7] 98 % of control | [25] 97 % of control | [26] 105 % of control
